# According to patent US5583132A, “Sulfonylalkanoylamino hydroxyethylamino sulfamic acids useful as retroviral protease inhibitors” (priority 1995, dated 1996):
# How the values were obtained:
# in vitro = type: cell-based; details: human, cem cells
# Procedure: Methods, 20, 309-321 (1988). Assays can be performed in 96-well tissue culture plates. […] Several wells receive culture medium without virus (uninfected control cells). […] Either azidothymidine (AZT) or dideoxyinosine (ddI) is included as a positive drug control. […] DMSO is added to all control wells at an appropriate concentration. […] To each sample is added 100 μl of 10% sodium dodecylsulfate in 0.01N HCl to lyse the cells, and samples are incubated overnight.
# HIV protease = target: T1, HIV protease (Human immunodeficiency virus type 1 group M subtype B, UniProt P04585); test: HIV protease enzyme assay; type: biochemical
# T1 construct: HIV protease is diluted in the assay buffer to a final enzyme concentration of 12.3 nanomolar, based on a molecular weight of 10,780
# Description: The compounds of the present invention are effective HIV protease inhibitors. Utilizing an enzyme assay as described below, the compounds set forth in the examples herein disclosed inhibited the HIV enzyme. The preferred compounds of the present invention and their calculated IC50 (inhibiting concentration 50%, i.e., the concentration at which the inhibitor compound reduces enzyme activity by 50%) values are shown in Table 17. The enzyme method is described below. The substrate is 2-Ile-Nle-Phe(p-NO2)-Gln-ArgNH2. The positive control is MVT-101 (Miller, M. et al, Science, 246, 1149 (1989)] The assay conditions are as follows:
# 20 mM sodium phosphate, pH 6.4
# The above described substrate is dissolved in DMSO, then diluted 10 fold in assay buffer. Final substrate concentration in the assay is 80 μM.
# HIV protease is diluted in the assay buffer to a final enzyme concentration of 12.3 nanomolar, based on a molecular weight of 10,780.
# The final concentration of DMSO is 14% and the final concentration of glycerol is 18%. The test compound is dissolved in DMSO and diluted in DMSO to 10x the test concentration; 10 μl of the enzyme preparation is added, the materials mixed and then the mixture is incubated at ambient temperature for 15 minutes. The enzyme reaction is initiated by the addition of 40 μl of substrate. The increase in fluorescence is monitored at 4 time points (0, 8, 16 and 24 minutes) at ambient temperature. Each assay is carried out in duplicate wells.
Compound,inhibition at 10 µM (HIV protease) [%],further results
CC(C)CN(C[C@@H](O)[C@H](Cc1ccccc1)NC(=O)OCc1ccccc1)S(=O)(=O)Nc1ccccc1 [E],–,CC50 at 168 h (in vitro): 7.5 µM
CC(C)CN(C[C@@H](O)[C@H](Cc1ccccc1)NC(=O)[C@H](C)CS(C)(=O)=O)S(=O)(=O)NC(C)(C)C [Example 14],–,"IC50 (HIV protease; Table 9, HIV protease enzyme assay, pH 6.4, substrate 80 μM): 0.14 µM"
CC(C)(C)NS(=O)(=O)N(C[C@@H](O)[C@H](Cc1ccccc1)NC(=O)OCc1ccccc1)C1CCCCC1 [K],60,–
CC(C)CN(C[C@@H](O)[C@H](Cc1ccccc1)NC(=O)OCc1ccccc1)S(=O)(=O)NCCOCc1ccccc1 [L],38,–
